This passage reports IC50 results from patent US20260347373A1, “HETEROCYCLIC COMPOUNDS, COMPOSITIONS THEREOF, AND METHODS OF TREATMENT THEREWITH” (BeOne Medicines I GmbH, priority 2023, published 2026).

In test [1] the target is WT KRAS (Homo sapiens, UniProt P01116). The experiment in a line: KRAS WT Probe Displacement Assay (TR-FRET, GDP-loaded). The format is binding. From the text: (§1) The synthetic routes of probe 1 and 2, which have been disclosed in PCT/CN2022/070676, are hereby incorporated herein.
WT KRAS, sequence (P01116 1-188 isoform P01116-2): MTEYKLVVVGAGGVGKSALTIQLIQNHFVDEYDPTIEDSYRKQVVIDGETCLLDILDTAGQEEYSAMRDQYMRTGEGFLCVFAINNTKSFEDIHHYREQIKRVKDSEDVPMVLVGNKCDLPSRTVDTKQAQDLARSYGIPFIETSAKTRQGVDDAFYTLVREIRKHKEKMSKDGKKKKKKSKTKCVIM
Background: TR-FRET usually uses a lanthanide donor and a delayed reading to cut background.

For test [2], the target named is KRAS G12D (Homo sapiens, UniProt P01116, G12D). The test is described as follows: KRAS G12D Probe Displacement Assay (TR-FRET, GDP-loaded). Format: binding.
KRAS G12D, sequence (P01116 1-188 isoform P01116-2 G12D): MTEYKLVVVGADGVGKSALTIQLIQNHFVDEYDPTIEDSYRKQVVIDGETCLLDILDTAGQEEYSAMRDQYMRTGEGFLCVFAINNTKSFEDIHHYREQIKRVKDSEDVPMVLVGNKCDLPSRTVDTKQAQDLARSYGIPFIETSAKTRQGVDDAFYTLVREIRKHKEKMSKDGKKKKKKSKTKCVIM
From the text: as §1

Setting [3] is: KRAS WT, read-out: KRAS^WT Probe Displacement Assay IC50.
The mark [4] stands for this setting: KRAS G12D, read-out: KRAS^G12D Probe Displacement Assay IC50.

Like-named read-outs stand apart in the source and are kept apart here. A value given as a limit tells only on which side of the number the result lay.

On to `Cc1cc(N)cc(-c2nc3c4c(nc(OCC5(CN6[C@@H]7CC[C@H]6COC7)CC5)nc4c2F)N2C[C@H]4CC[C@H](N4)[C@H]2CCO3)c1C(F)(F)F` [Example 107, 3-((6aR,7S,10R)-13-((1-(((1R,5S)-3-oxa-8-azabicyclo [3.2.1]octan-8-yl)methyl)cyclopropyl)methoxy)-1-fluoro-5,6,6a,7,8,9,10,11-octahydro-4-oxa-3,11a,12,14,15-pentaaza-7,10-methanocyclohepta [4,5]cycloocta [1,2,3-de]naphthalen-2-yl)-5-methyl-4-(trifluoromethyl)aniline], for which the IC50 in test [1] (setting [3]) is 3 to 1000 nM; in test [2] (setting [4]), less than 0.3 nM.

Consider `CO[C@@H]1CN2C[C@H](F)C[C@]2(COc2nc3c4c(nc(-c5cc(N)cc(C)c5C(F)(F)F)c(F)c4n2)OCC[C@@H]2[C@@H]4CC[C@H](CN32)N4)C1` [Example 216, 3-((6aR,7S,10R)-1-fluoro-13-(((2R,6S,7aS)-2-fluoro-6-methoxytetrahydro-1H-pyrrolizin-7a(5H)-yl)methoxy)-5,6,6a,7,8,9,10,11-octahydro-4-oxa-3,11a,12,14,15-pentaaza-7,10-methanocyclohepta[4,5]cycloocta[1,2,3-de]naphthalen-2-yl)-5-methyl-4-(trifluoromethyl)aniline], for which the IC50 in test [1] (setting [3]) was 3 to 1000 nM; in test [2] (setting [4]), less than 0.3 nM.

`Cc1cc(N)cc(-c2nc3c4c(nc(OCC5(CN6CCC(C#N)C6)CC5)nc4c2F)N2C[C@H]4CC[C@H](N4)[C@H]2CCO3)c1C(F)(F)F` (stereo partly drawn) [Example 166, 1-((1-((((6aR,7S,10R)-2-(5-amino-3-methyl-2-(trifluoromethyl)phenyl)-1-fluoro-5,6,6a,7,8,9,10,11-octahydro-4-oxa-3,11a,12,14,15-pentaaza-7,10-methanocyclohepta[4,5]cycloocta[1,2,3-de]naphthalen-13-yl)oxy)methyl)cyclopropyl)methyl)pyrrolidine-3-carbonitrile]: the IC50 in test [1] (setting [3]) is 3 to 1000 nM; in test [2] (setting [4]) it was less than 0.3 nM.

`CO[C@H]1CCN(CC2(COc3nc4c5c(nc(-c6cc(N)cc(C)c6C(F)(F)F)c(F)c5n3)OCC[C@@H]3[C@@H]5CC[C@H](CN43)N5)CC2)C1` [Example 88, 3-((6aR,7S,10R)-1-fluoro-13-((1-(((S)-3-methoxypyrrolidin-1-yl)methyl)cyclopropyl)methoxy)-5,6,6a,7,8,9,10,11-octahydro-4-oxa-3,11a,12,14,15-pentaaza-7,10-methanocyclohepta [4,5]cycloocta [1,2,3-de]naphthalen-2-yl)-5-methyl-4-(trifluoromethyl) aniline]: the IC50 in test [1] (KRAS^WT Probe Displacement Assay IC50, KRAS WT) was 3 to 1000 nM; in test [2] (KRAS^G12D Probe Displacement Assay IC50, KRAS G12D), less than 0.3 nM.

With `COC1(C)CN(CC2(COc3nc4c5c(nc(-c6cc(N)cc(C)c6C(F)(F)F)c(F)c5n3)OCC[C@@H]3[C@@H]5CC[C@H](CN43)N5)CC2)C1` [Example 84, 3-((6aR,7S,10R)-1-fluoro-13-((1-((3-methoxy-3-methylazetidin-1-yl)methyl)cyclopropyl)methoxy)-5,6,6a,7,8,9,10,11-octahydro-4-oxa-3,11a,12,14,15-pentaaza-7,10-methanocyclohepta [4,5]cycloocta [1,2,3-de]naphthalen-2-yl)-5-methyl-4-(trifluoromethyl)aniline], the IC50 in test [1] (setting [3]) was 3 to 1000 nM; in test [2] (setting [4]) it was less than 0.3 nM.

For the compound `CO[C@H]1CCN(CC2(COc3nc4c5c(nc(-c6cc(N)cc(C)c6C(F)(F)F)c(F)c5n3)OCC[C@@H]3[C@@H]5CC[C@H](CN43)N5)CC2)C[C@H]1F` [Example 185, 3-((6aR,7S,10R)-1-fluoro-13-((1-(((3R,4S)-3-fluoro-4-methoxypiperidin-1-yl)methyl)cyclopropyl)methoxy)-5,6,6a,7,8,9,10,11-octahydro-4-oxa-3,11a,12,14,15-pentaaza-7,10-methanocyclohepta[4,5]cycloocta[1,2,3-de]naphthalen-2-yl)-5-methyl-4-(trifluoromethyl)aniline], the IC50 in test [1] (setting [3]) is 3 to 1000 nM; in test [2] (setting [4]) it was less than 0.3 nM.

On to `Cc1cc(N)cc(-c2nc3c4c(nc(OCC5(CN6CCCC6CO)CC5)nc4c2F)N2C[C@H]4CC[C@H](N4)[C@H]2CCO3)c1C(F)(F)F` (single isomer, unassigned) [Example 124], for which the IC50 in test [1] (setting [3]) was 3 to 1000 nM; in test [2] (setting [4]), 0.3 to 3 nM.

In the case of `CN(C)C1(C)CN(c2nc3c4c(nc(-c5cc(N)cc(Cl)c5C(F)(F)F)c(F)c4n2)OCC[C@@H]2[C@@H]4CC[C@H](CN32)N4)C1` [Example 31, 1-((6aR,7S,10R)-2-(5-amino-3-chloro-2-(trifluoromethyl)phenyl)-1-fluoro-5,6,6a,7,8,9,10,11-octahydro-4-oxa-3,11a,12,14,15-pentaaza-7,10-methanocyclohepta[4,5]cycloocta [1,2,3-de]naphthalen-13-yl)-N,N,3-trimethylazetidin-3-amine], the IC50 in test [1] (setting [3]) was 3 to 1000 nM; in test [2] (setting [4]), 0.3 to 3 nM.

For the compound `Cc1cc(N)cc(-c2nc3c4c(nc(OCC56CC(F)CN5CC(F)C6)nc4c2F)N2C[C@H]4CC[C@H](N4)[C@H]2CCO3)c1C(F)(F)F` (stereo partly drawn) [Example 6, 3-((6aR,7S,10R)-13-((2,6-difluorotetrahydro-1H-pyrrolizin-7a(5H)-yl)methoxy)-1-fluoro-5,6,6a,7,8,9,10,11-octahydro-4-oxa-3,11a,12,14,15-pentaaza-7,10-methanocyclohepta[4,5]cycloocta [1,2,3-de]naphthalen-2-yl)-5-methyl-4-(trifluoromethyl)aniline], the figures for the 50% inhibitory concentration (IC50) in test [1] (setting [3]) and in test [2] (setting [4]) were 3 to 1000 nM and 0.3 to 3 nM, respectively.

As to `Cc1nc(N)cc(-c2nc3c4c(nc(OCC5(CN6CCC(=C(F)F)C6)CC5)nc4c2F)N2C[C@H]4CC[C@H](N4)[C@H]2CCO3)c1C(F)(F)F` [Example 150, 4-((6aR,7S,10R)-13-((1-((3-(difluoromethylene)pyrrolidin-1-yl)methyl)cyclopropyl)methoxy)-1-fluoro-5,6,6a,7,8,9,10,11-octahydro-4-oxa-3,11a,12,14,15-pentaaza-7,10-methano-cyclohepta[4,5]cycloocta [1,2,3-de]naphthalen-2-yl)-6-methyl-5-(trifluoromethyl)pyridin-2-amine], the IC50 is 3 to 1000 nM in test [1] (setting [3]) and less than 0.3 nM in test [2] (setting [4]).

`Cc1cc(N)cc(-c2nc3c4c(nc(OCC5(CN6CCC(C#N)CC6)CC5)nc4c2F)N2C[C@H]4CC[C@H](N4)[C@H]2CCO3)c1C(F)(F)F` [Example 165, 1-((1-((((6aR,7S,10R)-2-(5-amino-3-methyl-2-(trifluoromethyl)phenyl)-1-fluoro-5,6,6a,7,8,9,10,11-octahydro-4-oxa-3,11a,12,14,15-pentaaza-7,10-methanocyclohepta[4,5]cycloocta[1,2,3-de]naphthalen-13-yl)oxy)methyl)cyclopropyl)methyl)piperidine-4-carbonitrile]: the IC50 was 0.3 to 3 nM in test [1] (setting [3]) and less than 0.3 nM in test [2] (setting [4]).

As to `Cc1cc(N)cc(-c2nc3c4c(nc(OCC5(CN6CCC6)CC5)nc4c2F)N2C[C@H]4CC[C@H](N4)[C@H]2CCO3)c1C(F)(F)F` [Example 78, 3-((6aR,7S,10R)-13-((1-(azetidin-1-ylmethyl)cyclopropyl)methoxy)-1-fluoro-5,6,6a,7,8,9,10,11-octahydro-4-oxa-3, 11a,12,14,15-pentaaza-7,10-methanocyclohepta [4,5]cycloocta [1,2,3-de]naphthalen-2-yl)-5-methyl-4-(trifluoromethyl)aniline], the figures for the half-maximal inhibitory concentration (IC50) in test [1] (setting [3]) and in test [2] (setting [4]) were 3 to 1000 nM and 0.3 to 3 nM, respectively.

On to `[2H]C([2H])([2H])c1cc(N)cc(-c2nc3c4c(nc(OC[C@@]5(CN(C)C)CC5(F)F)nc4c2F)N2C[C@H]4CC[C@H](N4)[C@H]2CCO3)c1C(F)(F)F` [Example 46, 3-((6aR,7S,10R)-13-(((S)-1-((dimethylamino)methyl)-2,2-difluorocyclopropyl)methoxy)-1-fluoro-5,6,6a,7,8,9,10,11-octahydro-4-oxa-3,11a,12,14,15-pentaaza-7,10-methanocyclohepta[4,5]cycloocta [1,2,3-de]naphthalen-2-yl)-5-(methyl-d3)-4-(trifluoromethyl)aniline], for which the IC50 in test [1] (setting [3]) is 3 to 1000 nM; in test [2] (setting [4]) it was less than 0.3 nM.

As to `Cc1cc(N)cc(-c2nc3c4c(nc(OCC5(C(C)N(C)C)CC5(F)F)nc4c2F)N2C[C@H]4CC[C@H](N4)[C@H]2CCO3)c1C(F)(F)F` (single isomer, unassigned) [Example 59], the results for the IC50 in test [1] (setting [3]) and in test [2] (setting [4]) were 3 to 1000 nM and less than 0.3 nM, respectively.

For the compound `Nc1cc(Cl)c(C(F)(F)F)c(-c2nc3c4c(nc(OC[C@@]56C[C@@H](F)CN5CC5(CC5)C6)nc4c2F)N2C[C@H]4CC[C@H](N4)[C@H]2CCO3)c1` [Example 207, 3-chloro-5-((6aR,7S,10R)-1-fluoro-13-(((6′R,7a′R)-6′-fluorodihydro-1′H,3′H-spiro[cyclopropane-1,2′-pyrrolizin]-7a′(5′H)-yl)methoxy)-5,6,6a,7,8,9,10,11-octahydro-4-oxa-3,11a,12,14,15-pentaaza[7,10]methanocyclohepta[4,5]cycloocta[1,2,3-de]naphthalen-2-yl)-4-(trifluoromethyl)aniline], the IC50 was 0.3 to 3 nM in test [1] (setting [3]) and less than 0.3 nM in test [2] (setting [4]).

Regarding `COC[C@H]1[C@@H]2C[C@@H]2CN1CC1(COc2nc3c4c(nc(-c5cc(N)cc(C)c5C(F)(F)F)c(F)c4n2)OCC[C@@H]2[C@@H]4CC[C@H](CN32)N4)CC1` [Example 181, 3-((6aR,7S,10R)-1-fluoro-13-((1-(((1R,2R,5S)-2-(methoxymethyl)-3-azabicyclo[3.1.0]hexan-3-yl)methyl)cyclopropyl)methoxy)-5,6,6a,7,8,9,10,11-octahydro-4-oxa-3,11a,12,14,15-pentaaza-7,10-methanocyclohepta[4,5]cycloocta[1,2,3-de]naphthalen-2-yl)-5-methyl-4-(trifluoromethyl)aniline], the figures for the IC50 in test [1] (setting [3]) and in test [2] (setting [4]) were 3 to 1000 nM and less than 0.3 nM, respectively.

Regarding `Cc1cc(N)cc(-c2nc3c4c(nc(OCC5(C)CC(F)CN(C6CCOCC6)C5)nc4c2F)N2C[C@H]4CC[C@H](N4)[C@H]2CCO3)c1C(F)(F)F` (single isomer, unassigned) [Example 234], the IC50 in test [1] (setting [3]) lay within 3 to 1000 nM; in test [2] (setting [4]), 0.3 to 3 nM.

As usually defined, the IC50 is the point on the concentration scale where inhibition reaches its midpoint.
